Test results as given in patent US20240147994A1, “ENHANCED YEASTICIDAL EFFICACY OF LACTIC ACID BASED ANTIMICROBIAL HANDWASH” (ECOLAB USA INC., priority 2022, published 2024).
Where “and” joins values, the source holds several entries; their conditions need not be identical. Identical values can stand only once.

Tested on: Modified Vaccinia Virus, strain Ankara (MVA)
Assay type: cell-based
Details: reference inactivation (LVP-Method)

C=O [0.7% (w/v) formaldehyde solution, formaldehyde]
Reduction factor [lg] ± 95.0% confidence interval, 5 min: 1.70 lg and 1.87 lg and 1.53 lg
Reduction factor [lg] ± 95.0% confidence interval, 15 min: 3.14 lg and 2.96 lg and 2.73 lg
lg-TCID50/ml after 5 min: 4.93 lg-TCID50/ml and 4.88 lg-TCID50/ml and 4.85 lg-TCID50/ml
lg-TCID50/ml after 15 min: 3.49 lg-TCID50/ml and 3.79 lg-TCID50/ml and 3.65 lg-TCID50/ml
